Test results: patent publication US20170087205A1, “Replacement Therapy for Natriuretic Peptide Deficiencies” (priority 2014, published 2017)
Positions of bridges follow the written chain, without caps; N, C: chain ends. Non-standard residues stand in square brackets, D forms with d. Residues, ends and D or L forms follow the SMILES beside them. *: point of attachment. X1 = N=C(N)NCCC[C@H]1C(=O)N[C@@H](C(N)=O)CN1*; dNle = CCCC[C@@H](N)C(=O)O; Heptanoyl = CCCCCCC(=O)*

Assays:
human NPRA = molecular target: T1, human NPRA (Homo sapiens, UniProt P16066); assay type: cell-based; settings: human NPRA in HEK cells; mean ± SD
T1 sequence (P16066 33-1061): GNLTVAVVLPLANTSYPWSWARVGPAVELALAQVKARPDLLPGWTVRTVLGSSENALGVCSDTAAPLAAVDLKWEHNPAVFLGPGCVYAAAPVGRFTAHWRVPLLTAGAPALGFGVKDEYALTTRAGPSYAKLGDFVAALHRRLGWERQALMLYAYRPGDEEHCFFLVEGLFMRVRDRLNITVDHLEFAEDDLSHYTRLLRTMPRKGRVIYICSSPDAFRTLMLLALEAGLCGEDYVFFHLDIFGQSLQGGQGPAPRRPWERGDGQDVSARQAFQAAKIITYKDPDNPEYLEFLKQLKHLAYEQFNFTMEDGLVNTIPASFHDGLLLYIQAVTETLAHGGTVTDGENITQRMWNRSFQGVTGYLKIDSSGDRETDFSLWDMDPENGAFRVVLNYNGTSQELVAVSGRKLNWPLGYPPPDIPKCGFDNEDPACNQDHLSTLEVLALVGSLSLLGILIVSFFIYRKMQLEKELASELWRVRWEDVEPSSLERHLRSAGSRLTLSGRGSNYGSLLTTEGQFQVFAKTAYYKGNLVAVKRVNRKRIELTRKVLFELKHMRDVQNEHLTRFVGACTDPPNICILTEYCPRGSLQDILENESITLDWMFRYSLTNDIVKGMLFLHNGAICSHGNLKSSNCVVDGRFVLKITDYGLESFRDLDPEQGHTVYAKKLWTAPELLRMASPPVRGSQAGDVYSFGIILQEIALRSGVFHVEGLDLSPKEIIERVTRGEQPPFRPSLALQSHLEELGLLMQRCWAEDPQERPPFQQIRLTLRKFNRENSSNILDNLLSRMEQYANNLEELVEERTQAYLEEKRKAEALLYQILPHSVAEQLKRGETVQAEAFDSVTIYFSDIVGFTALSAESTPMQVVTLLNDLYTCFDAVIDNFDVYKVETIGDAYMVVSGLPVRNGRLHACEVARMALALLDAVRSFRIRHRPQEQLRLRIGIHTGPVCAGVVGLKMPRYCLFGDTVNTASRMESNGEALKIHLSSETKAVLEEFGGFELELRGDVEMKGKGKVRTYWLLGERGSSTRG
Procedure: A cDNA clone that encodes for human natriuratic peptide receptor A (NPRA) was purchased from Bio S&T Inc. (Montreal, Quebec). The cDNA clone was inserted into the mammalian expression vector pcDNA3.1 (Invitrogen) and transfected into HEK-293 cells. Stable clones were selected by culture of cells in the presence of G418 sulfate. […] HEK-hNPRA cells were maintained in culture at 37° C. in 5% CO2 in Dulbecco's Modified Eagle's Medium (DMEM) supplemented with 10% FBS, G418 sulfate (300 μg/mL) sodium glutamate (0.29 mg/mL), penicillin (100 units/mL) and streptromycin (100 ug/mL).
Functional evaluation of natriuretic peptide mimetics was performed by measuring the accumulation of intracellular cGMP in HEK-293 cells that express recombinant hNPR-A. HEK-NPRA cells were harvested by washing and centrifugation in Cell Dissociation Buffer (Gibco, Life Technologies). Pelleted cells were resuspended in Hank's Balanced Salt Solution (HBSS) containing 10 mM Hepes (pH 7.4), 5 mM MgCl2, 200 mM L-glutamine, 1 mM 1,10-phenanthroline and BSA (0.5 mg/mL). Following centrifugation, cells were resuspended in the above buffer supplemented with 0.5 mM 3-isobutyl-1-methylxanthine (IBMX). […] Accumulation of cGMP was measured using the cGMP Flashplate RIA (Perkin-Elmer). Data analysis and EC50 values were determined by using nonlinear regression analysis with GraphPad Prism® software.

[1] = Safety study in healthy volunteers: pharmacodynamic parameters (plasma cGMP); assay type: in vivo, human; settings: mean ± SD
Description: Cyclic guanosine monophosphate (cGMP) in the plasma samples was extracted using a protein precipitation method. cGMP and internal standard, cyclic adenosine monophosphate (cAMP), were separated using a HPLC technique and detected by an Applied Biosystems API-4000 liquid chromatography-tandem mass spectrometer (LC-MS/MS) with turbo-ion spray ionization (electrospray) in positive ion mode. Positive ions were detected in multiple reaction monitoring (MRM) mode with Precursor→Product ion pairs of 346.3→152.1 for cGMP, and 330.0→136.3 for cAMP.
In a safety study, the mimetic of formula IV was administered to healthy volunteers. Doses of 0.1, 0.3, 0.7 and 1.0 μg/kg of the mimetic of formula IV were administered.
Kel is the apparent terminal elimination rate constant, calculated by linear regression of the terminal linear portion of the log concentration versus the time curve. The plasma cGMP concentrations returned to baseline levels by approximately 8 hours after dosing following 0.7 μg/kg and 1.0 μg/kg of the mimetic of formula IV.

human NEP (hNEP) = human NEP (hNEP) (Homo sapiens, UniProt P08473); assay: Metabolism by human neutral endopeptidase (hNEP); assay type: in vitro ADME; settings: two hours, 37° C., substrate concentration 50 μM
Sequence of human NEP (hNEP) (P08473 whole entry): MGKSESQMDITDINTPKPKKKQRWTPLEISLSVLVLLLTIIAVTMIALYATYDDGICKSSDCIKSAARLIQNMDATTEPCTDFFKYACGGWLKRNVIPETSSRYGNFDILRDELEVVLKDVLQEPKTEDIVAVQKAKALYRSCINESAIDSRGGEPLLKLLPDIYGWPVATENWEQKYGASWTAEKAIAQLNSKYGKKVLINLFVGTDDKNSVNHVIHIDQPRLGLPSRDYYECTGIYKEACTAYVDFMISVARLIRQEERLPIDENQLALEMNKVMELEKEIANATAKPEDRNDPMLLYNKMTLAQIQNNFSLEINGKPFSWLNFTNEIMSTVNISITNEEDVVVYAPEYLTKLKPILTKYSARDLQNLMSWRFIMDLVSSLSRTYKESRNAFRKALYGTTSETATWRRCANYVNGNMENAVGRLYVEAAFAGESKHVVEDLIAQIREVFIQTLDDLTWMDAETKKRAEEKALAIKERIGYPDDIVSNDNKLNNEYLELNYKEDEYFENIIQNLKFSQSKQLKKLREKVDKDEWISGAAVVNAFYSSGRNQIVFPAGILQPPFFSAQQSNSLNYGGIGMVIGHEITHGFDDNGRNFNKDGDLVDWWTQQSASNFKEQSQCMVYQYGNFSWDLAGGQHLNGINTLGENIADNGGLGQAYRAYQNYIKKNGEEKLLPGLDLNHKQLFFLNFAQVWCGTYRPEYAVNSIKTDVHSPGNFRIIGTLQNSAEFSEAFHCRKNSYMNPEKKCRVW
Procedure: Pharmacol. 191:341-366 (2009)). A comparison was made between the sensitivity of the mimetic of formula IV and ANP to metabolism by human NEP (hNEP) (substrate concentration 50 μM). After two hours exposure to hNEP solution at 37° C., there was minimal degradation of the mimetic of formula IV (92% remaining; n=5). In contrast, under these conditions ANP was about 90% degraded after 60 minutes and 100% degraded after two hours (n=4). […] Results are shown in FIG. 1; results in FIG. 1 are expressed as the percent of the starting material, and are either the mean of 1-5 experiments or, where error bars are shown, are the mean±standard deviation.

[2] = in vivo; cited from earlier work

SMILES	Function (cGMP) Emax (% of ANP response) (human NPRA)	t½ ([1]; 0.7 μg/kg) [h]	t½ ([1]; 1.0 μg/kg) [h]	percent remaining after exposure to hNEP (human NEP (hNEP)) [%]	reported human plasma half-life [2]
CCCCCCC(=O)N[C@H]1CSSC[C@@H](C(=O)N[C@@H](Cc2ccc(O)cc2)C(=O)N2C[C@H](C(N)=O)NC(=O)[C@@H]2CCCNC(=N)N)NC(=O)[C@H](CO)NC(=O)[C@H]([C@@H](C)CC)NC(=O)[C@H](CCCNC(=N)N)NC(=O)[C@H](CC(=O)O)NC(=O)[C@@H](CCCC)NC(=O)[C@H](CCCNC(=N)N)NC(=O)CNC(=O)[C@@H](C)NC(=O)[C@H](Cc2ccccc2)NC(=O)[C@H](Cc2c[nH]cn2)NC1=O [mimetic of formula IV] (Heptanoyl-CHF[dA]GR[dNle]DRISCY-X1; disulfide 1-12)	94 ± 8 % of ANP response	3.03 ± 0.345	2.98 ± 3.61		
CC[C@H](C)[C@@H]1NC(=O)[C@H](CCCNC(=N)N)NC(=O)[C@H](CC(=O)O)NC(=O)[C@H](CC(C)C)NC(=O)[C@H](CCCCN)NC(=O)[C@H](CC(C)C)NC(=O)CNC(=O)[C@H](Cc2ccccc2)NC(=O)[C@@H](NC(=O)CNC(=O)[C@H](CCCCN)NC(=O)[C@H](CO)NC(=O)[C@H](CC(C)C)NC(=O)CN)CSSC[C@@H](C(=O)O)NC(=O)CNC(=O)[C@H](CC(C)C)NC(=O)CNC(=O)[C@H](CO)NC(=O)[C@H](CCSC)NC(=O)[C@H](CO)NC(=O)CNC1=O [hCNP]				1	about 2 minutes
